In patent publication US4921855A, “New Histidyl amino acid derivatives, and pharmaceutical composition comprising the same” (Fujisawa Pharmaceutical Co., Ltd., priority 1987, dated 1990) one finds IC50 data, which are given here for 36 compounds.

pIC50: −log10 of the molar value.

For the test, the target named is T1, renin (Homo sapiens, UniProt P00797).
T1 construct: endogenous renin and angiotensinogen in plasma; from tissue; host or cells: pooled human plasma (EDTA) from male volunteers
T1 sequence (P00797 67-406): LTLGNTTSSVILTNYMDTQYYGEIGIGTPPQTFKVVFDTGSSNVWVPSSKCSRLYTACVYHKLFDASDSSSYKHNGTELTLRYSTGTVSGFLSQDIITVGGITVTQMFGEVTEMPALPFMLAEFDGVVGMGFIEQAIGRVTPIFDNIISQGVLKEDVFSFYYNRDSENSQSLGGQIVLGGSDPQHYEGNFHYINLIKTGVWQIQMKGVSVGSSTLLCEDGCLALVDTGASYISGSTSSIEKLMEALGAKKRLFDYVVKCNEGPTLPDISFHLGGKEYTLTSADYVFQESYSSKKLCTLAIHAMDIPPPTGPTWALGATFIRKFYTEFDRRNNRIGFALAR
Kind of test: Inhibition of human plasma renin activity (angiotensin I formation, RIA). The format is biochemical. The conditions noted are these: endogenous renin and angiotensinogen, pH 6.0, 37° C, 90 minutes, RIA of Ang I. How it is done:
Human plasma was collected from male volunteers pretreated with no drugs and used as a pool. Disodium salt of ethylenediaminetetraacetic acid (EDTA) was used as the anticoagulant. Plasma renin activity was measured as the rate of angiotensin I (Ang I) formation after incubation (37° C) of the endogenous renin and angiotensinogen in plasma at pH 6.0. The incubation mixture contained 250 μl of plasma, 5 μl of (phenylmethyl)sulfonyl fluoride, 30 μl of buffer (sodium, potassium-phosphate, pH 6.0), and 15 μl of an appropriate concentration of test compound in 50% ethyl alcohol-water vehicle. The Ang I formed after 90 minutes of incubation was measured by radioimmunoassay (RIA) which was carried out with a commercial kit, RENCTK 100 (manufactured by Commissariat A L'energic Atomique). Samples were incubated in duplicate and each tube was measured in duplicate in the RIA. Percentage inhibition of plasma renin activity was calculated by comparing the amount of Ang I produced with and without a test compound. The concentration of test compound that inhibited plasma renin activity by 50% (IC50) was determined by Probit method.
Turning to `CC(C)CC[C@H](O)[C@H](CC1CCCCC1)NC(=O)[C@H](Cc1c[nH]cn1)N(C)C(=O)[C@H](Cc1ccccc1)OC(=O)N(C)N(C)C(=O)NC(C)C` [(21)], the pIC50 is 7.37.
Compound `CC(C)CC[C@H](O)[C@H](CC1CCCCC1)NC(=O)[C@H](Cc1c[nH]cn1)N(C)C(=O)[C@H](Cc1ccccc1)OC(=O)N(C)CC(=O)OCCc1ccccc1` [(14)] gave a pIC50 of 7.32.
As to `COC(=O)[C@H]1CCCN1C(=O)O[C@@H](Cc1ccccc1)C(=O)N(C)[C@@H](Cc1c[nH]cn1)C(=O)N[C@@H](CC1CCCCC1)[C@@H](O)CCC(C)C` [(4)], the pIC50 is 7.89.
Regarding `CC(C)CC[C@H](O)[C@H](CC1CCCCC1)NC(=O)[C@H](Cc1c[nH]cn1)N(C)C(=O)[C@H](Cc1ccccc1)OC(=O)N1CCOCC1` [(2)], the pIC50 was 7.10.
As for `CC(C)CC[C@H](O)[C@H](CC1CCCCC1)NC(=O)[C@H](Cc1c[nH]cn1)N(C)C(=O)[C@H](Cc1ccccc1)OC(=O)N(C)CC(=O)OCC(C)C` [(13)], the figure is 7.47.
Compound `CC(C)CC[C@H](O)[C@H](CC1CCCCC1)NC(=O)[C@H](Cc1c[nH]cn1)NC(=O)[C@H](Cc1ccccc1)OC(=O)N(C)CCC(=O)N1CCOCC1` [(19)] gave a pIC50 of 8.32.
To `CC(C)CC[C@H](O)[C@H](CC1CCCCC1)NC(=O)[C@H](Cc1c[nH]cn1)N(C)C(=O)[C@H](Cc1ccccc1)OC(=O)N1CCNC(=O)C1` [(12)] belongs 7.54.
`CC(C)CC[C@H](O)[C@H](CC1CCCCC1)NC(=O)[C@H](Cc1c[nH]cn1)N(C)C(=O)[C@H](Cc1ccccc1)OC(=O)N1CCCC(=O)C1` [(28)]: the pIC50 was 7.36.
As to `CC(C)CC[C@H](O)[C@H](CC1CCCCC1)NC(=O)[C@H](Cc1c[nH]cn1)N(C)C(=O)[C@H](Cc1ccccc1)OC(=O)N1CCCN1C(=O)NC(C)C` [(22)], the pIC50 is 7.20.
`COC(=O)CN(C)C(=O)O[C@@H](Cc1ccccc1)C(=O)N(C)[C@@H](Cc1c[nH]cn1)C(=O)N[C@@H](CC1CCCCC1)[C@@H](O)CCC(C)C` [(3)] gave a pIC50 of 7.48.
`CC(C)CC[C@H](O)[C@H](CC1CCCCC1)NC(=O)[C@H](Cc1c[nH]cn1)N(C)C(=O)[C@H](Cc1ccccc1)OC(=O)N(C)CCCC(=O)N(C)C(C)C` [(33)] had a pIC50 of 7.77.
Regarding `CC(C)CC[C@H](O)[C@H](CC1CCCCC1)NC(=O)[C@H](Cc1c[nH]cn1)N(C)C(=O)[C@H](Cc1ccccc1)OC(=O)N(C)N(C)C(=O)OCC(C)C` [(20)], the pIC50 was 7.15.
`CC(C)CC[C@H](O)[C@H](CC1CCCCC1)NC(=O)[C@H](Cc1c[nH]cn1)N(C)C(=O)[C@H](Cc1ccccc1)OC(=O)N(C)CCC(=O)N(C)CCc1ccccn1` [(37)] gave a pIC50 of 7.42.
As for `CC(C)CC[C@H](O)[C@H](CC1CCCCC1)NC(=O)[C@H](Cc1c[nH]cn1)N(C)C(=O)[C@H](Cc1ccccc1)OC(=O)N(C)CCC(=O)N1CC=CCC1` [(38)], the pIC50 is 7.36.
Compound `CC(C)CC[C@H](O)[C@H](CC1CCCCC1)NC(=O)[C@H](Cc1c[nH]cn1)N(C)C(=O)[C@H](Cc1ccccc1)OC(=O)N(C)CC(=O)N(C)C` [(7)] had a pIC50 of 7.40.
On to `CC(C)CC[C@H](O)[C@H](CC1CCCCC1)NC(=O)[C@H](Cc1c[nH]cn1)NC(=O)[C@H](Cc1ccccc1)OC(=O)N1CCOCC1` [(1)], for which the pIC50 is 7.72.
Consider `CC(C)CC[C@H](O)[C@H](CC1CCCCC1)NC(=O)[C@H](Cc1c[nH]cn1)N(C)C(=O)[C@H](Cc1ccccc1)OC(=O)N1CCN(C)C(=O)C1` [(11)], for which the pIC50 is 7.72.
To `CC(C)CC[C@H](O)[C@H](CC1CCCCC1)NC(=O)[C@H](Cc1c[nH]cn1)NC(=O)[C@H](Cc1ccccc1)OC(=O)N(C)N(C)C(=O)N1CCOCC1` [(36)] belongs 8.01; to `CC(C)CC[C@H](O)[C@H](CC1CCCCC1)NC(=O)[C@H](Cc1c[nH]cn1)N(C)C(=O)[C@H](Cc1ccccc1)OC(=O)N1CC(=O)N2CCC[C@H]2C1` [(10)], 7.68; to `CC(C)CC[C@H](O)[C@H](CC1CCCCC1)NC(=O)[C@H](Cc1c[nH]cn1)N(C)C(=O)[C@H](Cc1ccccc1)OC(=O)N(C)CCCCC(=O)N(C)C(C)C` [(29)], 7.80.
Take `CC(C)CC[C@H](O)[C@H](CC1CCCCC1)NC(=O)[C@H](Cc1c[nH]cn1)N(C)C(=O)[C@H](Cc1ccccc1)OC(=O)N(C)CCC(=O)NC(C)C` [(39)]: the pIC50 was 7.43.
As for `CC(C)CC[C@H](O)[C@H](CC1CCCCC1)NC(=O)[C@H](Cc1c[nH]cn1)N(C)C(=O)[C@H](Cc1ccccc1)OC(=O)N(C)CCN(C)C(=O)CC(C)C` [(25)], the figure is 7.85; as for `CC(C)CC[C@H](O)[C@H](CC1CCCCC1)NC(=O)[C@H](Cc1c[nH]cn1)N(C)C(=O)[C@H](Cc1ccccc1)OC(=O)N(C)CCC(=O)N1CCSCC1` [(18)], 7.52; as for `CC(C)CC[C@H](O)[C@H](CC1CCCCC1)NC(=O)[C@H](Cc1c[nH]cn1)N(C)C(=O)[C@H](Cc1ccccc1)OC(=O)N(C)CCS(=O)(=O)C(C)C` [(40)], 7.24.
In turn, `CC(C)CC[C@H](O)[C@H](CC1CCCCC1)NC(=O)[C@H](Cc1c[nH]cn1)N(C)C(=O)[C@H](Cc1ccccc1)OC(=O)N1CCC[C@@H]1C(=O)N(C)C` [(9)] had a pIC50 of 7.52.
In turn, `CC(C)CC[C@H](O)[C@H](CC1CCCCC1)NC(=O)[C@H](Cc1c[nH]cn1)N(C)C(=O)[C@H](Cc1ccccc1)OC(=O)N(C)CCC(=O)NCc1ccccn1` [(17)] had a pIC50 of 7.48.
To `CC(C)CC[C@H](O)[C@H](CC1CCCCC1)NC(=O)[C@H](Cc1c[nH]cn1)N(C)C(=O)[C@H](Cc1ccccc1)OC(=O)N(C)CCCCN(C)C(=O)N1CCOCC1` [(34)] belongs 8.12.
As for `CC(C)CC[C@H](O)[C@H](CC1CCCCC1)NC(=O)[C@H](Cc1c[nH]cn1)N(C)C(=O)[C@H](Cc1ccccc1)OC(=O)N(C)CCC(=O)N(C)C` [(6)], the figure is 7.39.
To `CC(C)CC[C@H](O)[C@H](CC1CCCCC1)NC(=O)[C@H](Cc1c[nH]cn1)N(C)C(=O)[C@H](Cc1ccccc1)OC(=O)N(C)CCCCC(=O)N1CCOCC1` [(35)] belongs 8.28.
`CC(C)CC[C@H](O)[C@H](CC1CCCCC1)NC(=O)[C@H](Cc1c[nH]cn1)N(C)C(=O)[C@H](Cc1ccccc1)OC(=O)N(C)CC(=O)NCc1ccncc1` [(8)] had a pIC50 of 7.34.
`CC(=O)COC(=O)CN(C)C(=O)O[C@@H](Cc1ccccc1)C(=O)N(C)[C@@H](Cc1c[nH]cn1)C(=O)N[C@@H](CC1CCCCC1)[C@@H](O)CCC(C)C` [(15)] showed a pIC50 of 7.48.
As to `CCOC(=O)CNC(=O)CCN(C)C(=O)O[C@@H](Cc1ccccc1)C(=O)N(C)[C@@H](Cc1c[nH]cn1)C(=O)N[C@@H](CC1CCCCC1)[C@@H](O)CCC(C)C` [(16)], the pIC50 was 7.42.
To `CC(C)CC[C@H](O)[C@H](CC1CCCCC1)NC(=O)[C@H](Cc1c[nH]cn1)N(C)C(=O)[C@H](Cc1ccccc1)OC(=O)N(C)CCCCC(=O)NC(C)C` [(30)] belongs 8.19; to `CC(C)CC[C@H](O)[C@H](CC1CCCCC1)NC(=O)[C@H](Cc1c[nH]cn1)N(C)C(=O)[C@H](Cc1ccccc1)OC(=O)N(C)CCC(=O)N(C)CC(C)C` [(27)], 7.34.
Compound `CC(C)CC[C@H](O)[C@H](CC1CCCCC1)NC(=O)[C@H](Cc1c[nH]cn1)N(C)C(=O)[C@H](Cc1ccccc1)OC(=O)N(C)CCCC(=O)N1CCOCC1` [(32)] gave a pIC50 of 7.82.
Consider `CC(C)CC[C@H](O)[C@H](CC1CCCCC1)NC(=O)[C@H](Cc1c[nH]cn1)N(C)C(=O)[C@H](Cc1ccccc1)OC(=O)N(C)CCCN(C)C(=O)N1CCOCC1` [(31)], for which the pIC50 was 7.89.
